From publication PMC3509583, “Molecular Mechanisms of Pharmaceutical Drug Binding into Calsequestrin” (International Journal of Molecular Sciences, 2012)
Like-named read-outs stand apart in the source and are kept apart here.

Legend:
[1] = molecular target: T1, human cardiac calsequestrin (hCASQ2) (Homo sapiens, UniProt O14958); design: method as in PMID 20713040; conditions: cited from earlier work; for binding class based on ITC dissociation constants (Kd): hCASQ2, drugs grouped as strong, moderate or poor binders; for Kd: hCASQ2, ITC, previous studies, read-out: experimental dissociation constant (Kd)
T1 sequence (O14958 20-399): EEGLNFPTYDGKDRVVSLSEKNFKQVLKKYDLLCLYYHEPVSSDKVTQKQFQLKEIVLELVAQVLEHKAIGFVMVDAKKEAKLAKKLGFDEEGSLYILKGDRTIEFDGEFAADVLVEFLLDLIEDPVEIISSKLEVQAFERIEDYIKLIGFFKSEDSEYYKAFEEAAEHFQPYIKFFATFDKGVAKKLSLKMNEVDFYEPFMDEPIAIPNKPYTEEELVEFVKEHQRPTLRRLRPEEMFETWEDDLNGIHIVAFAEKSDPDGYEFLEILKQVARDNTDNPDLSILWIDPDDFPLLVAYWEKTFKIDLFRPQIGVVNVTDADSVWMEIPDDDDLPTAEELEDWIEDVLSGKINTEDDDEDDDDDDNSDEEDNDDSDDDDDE

[2] = molecular target: T1, human cardiac calsequestrin (hCASQ2); assay: Isothermal titration calorimetry (ITC) of drug binding to hCASQ2, with or without caffeine; conditions: hCASQ2, titration in the absence of caffeine (Supplemental Fig. 2); read-out: Dissociation constant (Kd)
Method: We performed ITC assays to check the predicted competition between the natural compounds (CAF, EGC, and EGCG) and tested synthetic drugs.
ITC experiments were conducted using a previous protocol, with slight modifications. The protein and drug concentrations were kept at 50 μM and 2 mM, respectively, while the CAF concentration was allowed to vary between 0 and 5 mM for different drugs. […] Origin software (Origin Lab Corp, Northampton, MA, USA) was used to fit the data to a one-site binding model via non-linear least squares regression.

SR microsomes = tested on: SR microsomes; design: method as in PMID 16141311, PMID 15492117; conditions: concentration- and time-dependent; cited from earlier work

SMILES	binding class based on ITC dissociation constants (Kd) [1]	Kd [2] [µM]	Kd [1] [µM]	total SR microsomal Ca2+ content (SR microsomes)
CNCCC=C1c2ccccc2CCc2ccccc21 [nortriptyline]	moderate	–	–	–
CSc1ccc2c(c1)N(CCC1CCCCN1C)c1ccccc1S2 (stereo not drawn) [thioridazine]	strong	22	–	–
COc1ccc([C@@H]2Sc3ccccc3N(CCN(C)C)C(=O)[C@@H]2OC(C)=O)cc1 [diltiazem]	moderate	41	–	–
CN(C)CCCN1c2ccccc2Sc2ccc(Cl)cc21 [chlorpromazine]	poor	102	–	–
COCCc1ccc(OCC(O)CNC(C)C)cc1 (stereo not drawn) [metoprolol]	poor	–	–	–
CCCNCC(O)COc1ccccc1C(=O)CCc1ccccc1 (stereo not drawn) [propafenone]	poor	–	–	–
Clc1ccc(COC(Cn2ccnc2)c2ccc(Cl)cc2Cl)c(Cl)c1 (stereo not drawn) [miconazole]	poor	–	–	–
CC(C)NCC(O)c1ccc(O)c(O)c1 (stereo not drawn) [isoproterenol]	poor	–	–	–
CN[C@@H](C)[C@H](O)c1ccccc1 [ephedrine]	poor	–	–	–
CN1CCN(CCCN2c3ccccc3Sc3ccc(C(F)(F)F)cc32)CC1 [trifluoperazine]	strong	36	18.2	significantly reduce
CC(CN1c2ccccc2Sc2ccccc21)N(C)C (stereo not drawn) [promethazine]	moderate	–	–	–
CCOC(=O)C1=C(COCCN)NC(C)=C(C(=O)OC)C1c1ccccc1Cl (stereo not drawn) [amlodipine]	strong	–	20.4	–
COc1cccc2c1C(=O)c1c(O)c3c(c(O)c1C2=O)C[C@@](O)(C(=O)CO)C[C@@H]3O[C@H]1C[C@H](N)[C@H](O)[C@H](C)O1 [doxorubicin]	strong	–	14.4	–
CN(C)CCC=C1c2ccccc2CCc2ccccc21 [amitriptyline]	moderate	–	–	–
COc1cccc2c1C(=O)c1c(O)c3c(c(O)c1C2=O)C[C@@](O)(C(C)=O)C[C@@H]3O[C@H]1C[C@H](N)[C@H](O)[C@H](C)O1 [daunomycin]	strong	–	20.3	–
